In publication PMC6030077, “Dual role of HDAC10 in lysosomal exocytosis and DNA repair promotes neuroblastoma chemoresistance” (Scientific Reports, 2018):

Key:
[1] = tested on: proliferating human fibroblasts; test: Flow cytometric analysis of cellular doxorubicin fluorescence, fibroblasts; type: cell-based; conditions: 100 ng/ml doxorubicin 48 h; tubastatin A 7.5 µM, vacuolin-1 10 µM, verapamil 10 µM
[2] = tested on: BE(2)-C cells; test: Flow cytometric analysis of γH2A.X staining (DNA double-strand breaks); type: cell-based, human; conditions: 24 h, tubastatin A 7.5 µM, vacuolin-1 10 µM
Protocol: Cells were dissociated from dishes using non-enzymatic cell dissociation reagent for five minutes. Cells were counted using a ViCell XR automatic cell counter (Beckmann Coulter) and 2.5 ∗ 10^5 cells were transferred into a pre-cooled 96-well round bottom plate (TPP92097). […] Cells were washed three times in FACS buffer (5% FBS in PBS) after each antibody incubation step. For evaluation of DNA double-strand breaks, cells were detached from dishes using trypsin, counted using a ViCell XR automatic cell counter (Beckmann Coulter) and transferred into a pre-cooled 96-well round bottom plate (4 ∗ 10^6 cells/well). Cells were fixed and permeabilized using the eBioscience^TM Foxp3/Transcription Factor Staining Buffer Set (Thermo Fisher Scientific). […] Cells were washed three times in 1× permeabilization buffer after each antibody incubation step and fluorescence was quantified on a BD FACSCanto II platform.

[3] = target: T1, HDAC10 (Homo sapiens, UniProt Q969S8); test: In-cell target engagement (NanoBRET) assay, NanoLuc-HDAC10; type: binding
T1 construct: NanoLuc®-HDAC10 FL Fusion Vector; host or cells: HeLa cells, stably transfected
T1 sequence (Q969S8 1-669): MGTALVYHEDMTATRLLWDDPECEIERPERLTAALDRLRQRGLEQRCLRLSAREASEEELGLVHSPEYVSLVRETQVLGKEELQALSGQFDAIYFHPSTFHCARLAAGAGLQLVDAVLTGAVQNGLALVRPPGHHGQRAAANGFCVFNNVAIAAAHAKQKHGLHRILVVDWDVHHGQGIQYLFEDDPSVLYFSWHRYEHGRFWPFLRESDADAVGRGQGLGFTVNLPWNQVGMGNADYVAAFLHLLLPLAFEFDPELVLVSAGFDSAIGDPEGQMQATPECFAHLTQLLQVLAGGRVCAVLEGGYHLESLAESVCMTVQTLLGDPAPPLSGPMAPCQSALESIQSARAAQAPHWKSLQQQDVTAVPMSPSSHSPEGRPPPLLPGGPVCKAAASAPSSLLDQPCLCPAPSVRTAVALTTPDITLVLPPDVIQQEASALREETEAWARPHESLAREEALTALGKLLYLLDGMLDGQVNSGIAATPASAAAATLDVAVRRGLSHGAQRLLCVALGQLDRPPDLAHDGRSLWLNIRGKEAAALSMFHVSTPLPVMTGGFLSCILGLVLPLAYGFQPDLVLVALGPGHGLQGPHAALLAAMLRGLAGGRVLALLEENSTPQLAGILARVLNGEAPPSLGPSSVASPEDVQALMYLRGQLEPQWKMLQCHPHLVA
Source text: We next investigated if accumulation of lysosomes was also affected by inhibition of HDAC6 and HDAC10, respectively. […] Since no bona fide downstream target protein of HDAC10 has been described to date, we performed an in-cell target engagement (NanoBRET) assay that measures competitive displacement of a fluorescently-labeled tracer from NanoLuc® Luciferase coupled HDAC10 enzyme. […] To exclude that lysosomal accumulation after treatment with HDAC6/10 inhibitors was caused by off-target inhibition of class I HDACs, we treated BE(2)-C cells with 1 mM class I HDAC inhibitor valproic acid (VPA).
HeLa cells, stabily transfected with NanoBRET plasmids NanoLuc®-HDAC6 FL Fusion Vector and NanoLuc®-HDAC10 FL Fusion Vector (Promega, Madison, WI, USA) were seeded at 20.000 cells/well in white 96 well plates. Without further incubation, tracer (0.3 µM) and drugs were added in separate steps and plates were placed in a tissue culture incubator for 2 h. For NanoBRET quantification, plates were put at room temperature for 10 minutes. Nanoglow substrate, diluted in OptiMEM without phenol red, was added and measured within 10 minutes in an OPTIMA plate reader (460 nm emission for donor and 610LP filter for acceptor). The BRET signal was calculated by the ratio of acceptor signal and donor signal.

[4] = tested on: BE(2)-C cells; test: Flow cytometric analysis of LysoTracker DND-99 staining (lysosomal accumulation); type: cell-based, human; conditions: 24 h
Protocol: Six days after siRNA transfection or 24 h after treatment with HDAC or lysosomal inhibitors, cells were stained for 1 h with 50 nM LysoTracker® Red DND-99 in medium under standard cell culture conditions. Cells were washed with ice-cold RPMI w/o phenol-red and detached using Trypsin/EDTA for 3 minutes at 37 °C. Cells were centrifuged, resuspended in RPMI w/o phenol red and LysoTracker® Red fluorescence was quantified on a BD FACSCanto II platform using the PE filter setting.

[5] = tested on: BE(2)-C cells; test: Flow cytometric quantification of intracellular doxorubicin accumulation, BE(2)-C; type: cell-based, human
Protocol: For flow cytometric quantification of intracellular doxorubicin after HDAC6/10 inhibition, BE(2)-C, SK-N-AS, IMR-32, HAP1 wild type and HDAC10 knockout cells were seeded in 6-well dishes at a density of 1.5 ∗ 10^5 cells/well (BE(2)-C and SK-N-AS, HAP1) and 3 ∗ 10^5 cells/well (IMR-32). Cells were treated with 25 ng/ml, 50 ng/ml, 100 ng/ml or 1 µg/ml doxorubicin, respectively, for 3–48 h (see respective figure legend). Where indicated, cells were co-treated with HDAC6/10 or lysosomal inhibitors. In case of co-treatment with vacuolin-1, vacuolin-1 was directly added to cells under doxorubicin treatment 1 h or 24 h prior to analysis. Flow cytometric quantification of intracellular doxorubicin after HDAC6, HDAC10 or P-glycoprotein knockdown in BE(2)-C cells was performed 5 days (P-glycoprotein) or 6 days (HDAC6/10) after transfection with siRNA. To that end, cells were seeded 3–4 days after transfection into 6-well dishes at 1.5 ∗ 10^5 cells per well and treated with 100 ng/ml doxorubicin +/− HDAC6/10 and lysosomal inhibitors for the last 24 h. After doxorubicin treatment, BE(2)-C, SK-N-AS, IMR-32 and HAP1 cells were washed with ice-cold RPMI w/o phenol-red and detached using Trypsin/EDTA for 3 minutes at 37 °C. Cells were centrifuged, resuspended in RPMI w/o phenol red and doxorubicin fluorescence was quantified on a BD FACSCanto II platform using the PE filter setting.

CN1CCc2c(c3ccccc3n2Cc2ccc(C(=O)NO)cc2)C1 [tubastatin A]
intracellular doxorubicin in fibroblasts [1]: did not exhibit strongly increased intracellular doxorubicin | DSBs (γH2A.X), co-treatment with doxorubicin compared to doxorubicin alone ([2]; 100 ng/ml doxorubicin): significantly increased the amount of DSBs | DSBs (γH2A.X), treatment alone in the absence of doxorubicin ([2]; verapamil 10 µM): increase DSBs | affinity towards HDAC10 (NanoBRET tracer displacement) [3]: strong affinity towards HDAC10 | lysosomal accumulation (LysoTracker staining) ([4]; bufexamac 30 µM, tubastatin A 7.5 µM, tubacin 7.5 µM, VPA 1 mM, vacuolin-1 10 µM): caused lysosomal accumulation | lysosomal accumulation on combination with vacuolin-1 compared to vacuolin-1 alone ([4]; tubastatin A 7.5 µM + vacuolin-1 10 µM): no additional lysosomal accumulation | intracellular doxorubicin after co-treatment ([5]; 100 ng/ml doxorubicin, 48 h, bufexamac 30 µM, tubastatin A 7.5 µM, tubacin 7.5 µM): increased intracellular doxorubicin | intracellular doxorubicin levels, short-term ([5]; 12 h pre-treatment with inhibitor, then 1 µg/ml doxorubicin for 3 h): increased intracellular doxorubicin levels
